The results in this text go back to patent publication US20260008770A1, “CBL-B INHIBITORS AND METHODS OF USES THEREOF” (Insilico Medicine IP Limited, priority 2022, published 2026).

Some results are limits rather than exact numbers.

The target in one experiment is Cbl-b protein (CBL-B, GST-Tag) (Homo sapiens (Human), UniProt Q13191). Kind of experiment: HTRF based binding assay, affinity to Cbl-b protein.
Cbl-b protein (CBL-B, GST-Tag), sequence (Q13191 whole entry): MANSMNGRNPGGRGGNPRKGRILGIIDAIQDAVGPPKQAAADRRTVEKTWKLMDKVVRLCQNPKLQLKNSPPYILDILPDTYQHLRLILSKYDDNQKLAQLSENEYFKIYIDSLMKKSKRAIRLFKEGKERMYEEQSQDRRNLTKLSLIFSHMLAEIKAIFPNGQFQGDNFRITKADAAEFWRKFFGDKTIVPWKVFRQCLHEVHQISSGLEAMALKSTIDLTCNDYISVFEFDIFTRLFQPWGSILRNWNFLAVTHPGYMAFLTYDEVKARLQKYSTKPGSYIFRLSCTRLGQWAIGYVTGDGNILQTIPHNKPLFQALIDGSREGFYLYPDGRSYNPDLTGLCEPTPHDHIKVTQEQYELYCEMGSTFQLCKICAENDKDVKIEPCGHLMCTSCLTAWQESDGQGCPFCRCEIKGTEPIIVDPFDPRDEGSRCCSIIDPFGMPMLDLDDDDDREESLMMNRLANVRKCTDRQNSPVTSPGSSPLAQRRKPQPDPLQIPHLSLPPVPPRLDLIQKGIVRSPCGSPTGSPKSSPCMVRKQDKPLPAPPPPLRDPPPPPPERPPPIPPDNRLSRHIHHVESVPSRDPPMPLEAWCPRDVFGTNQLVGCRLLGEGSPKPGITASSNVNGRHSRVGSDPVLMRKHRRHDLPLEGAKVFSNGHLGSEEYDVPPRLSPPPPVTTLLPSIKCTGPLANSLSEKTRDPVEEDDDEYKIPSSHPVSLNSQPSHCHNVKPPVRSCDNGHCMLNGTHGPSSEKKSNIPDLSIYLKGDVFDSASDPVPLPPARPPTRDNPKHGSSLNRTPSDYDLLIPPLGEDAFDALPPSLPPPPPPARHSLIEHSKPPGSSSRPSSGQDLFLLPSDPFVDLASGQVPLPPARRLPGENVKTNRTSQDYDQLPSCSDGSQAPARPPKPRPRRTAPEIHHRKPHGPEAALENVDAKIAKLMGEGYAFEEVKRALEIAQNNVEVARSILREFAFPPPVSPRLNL
Conditions: not given
In the case of `COCC1CC(c2cccc(-n3cnc4c(C(F)(F)F)cc(CN5CCC[C@H](C)C5)cc4c3=O)c2)(c2nncn2C)C1` (stereo partly shown) [Example 76], the IC50 was 50 to 500 nM.
For the compound `CC1CC(c2cc(Cl)nc(-n3cnc4c(C(F)(F)F)cc(CN5CCC[C@H](C)C5)cc4c3=O)c2)(c2nncn2C)C1` (stereo partly shown) [Example 41], the IC50 lay in the range of 20 to 50 nM.
On to `CC1CC(c2cccc(-c3nc4cc(CN5CCO[C@H](C)C5)cc(C(F)(F)F)c4s3)c2)(c2nncn2C)C1` (stereo partly shown) [Example 11], for which the IC50 was 50 to 500 nM.
Same read-out and setting: the figure for `C[C@H]1CCCN(Cc2cc(C(F)(F)F)c3ncn(-c4cccc(C5(Cc6nncn6C)COC5)c4)c(=O)c3c2)C1` [Example 80, (S)-3-(3-(3-((4-methyl-4H-1,2,4-triazol-3-yl)methyl)oxetan-3-yl)phenyl)-6-((3-methylpiperidin-1-yl)methyl)-8-(trifluoromethyl)quinazolin-4(3H)-one] is 500 to 1000 nM.
Still for that read-out and setting: the figure for `[2H]C([2H])([2H])n1cnnc1C1(c2ccnc(-n3cnc4c(C(F)(F)F)cc(CN5CCC[C@H](C)C5)cc4c3=O)c2)CC(C)C1` (stereo partly shown) [Example 121] is under 20 nM; for `Cn1cnnc1[C@]1(c2ccnc(-n3ncc4c(C(F)(F)F)cc(CN5CCOC6(CCC6)C5)cc4c3=O)c2)C[C@H](C)C1` [Example 39] it is 500 to 1000 nM.
Same read-out and setting: for `Cn1cnnc1[C@]1(c2cc(OCF)nc(-n3cnc4ccc(CN5CCC[C@H](F)C5)cc4c3=O)c2)C[C@H](C)C1` [Example 98] the value was 50 to 500 nM; for `C#Cc1cc(-n2cc3c(C(F)(F)F)cc(CN4CCC[C@H](C)C4)cc3n2)cc(C2(c3nncn3C)CC(C)C2)c1` (stereo partly shown) [Example 51], 50 to 500 nM; for `CC1CC(c2cccc(-n3nc(C(F)(F)F)c4ccc(CN5CCC[C@H](C)C5)cc4c3=O)c2)(c2nncn2C)C1` (stereo partly shown) [Example 9], 50 to 500 nM.
In turn, `C[C@H]1CCCN(Cc2cc(C(F)(F)F)c3cn(-c4cccc(C5(c6nncn6C)CC(F)(F)C5)c4)nc3c2)C1` [Example 87] gave an IC50 of 20 to 50 nM.
Regarding `Cc1cc(C2(c3nncn3C)CC(C)C2)cc(-n2cnc3c(C(F)(F)F)cc(CN4CCC[C@H](C)C4)cc3c2=O)n1` (stereo partly shown) [Example 45], the IC50 is 50 to 500 nM.
Consider `C[C@H]1CCCN(Cc2cc(C(F)(F)F)c3cn(-c4cccc(C5(c6nncn6C)CC(=O)C5)c4)nc3c2)C1` [Example 68], for which the IC50 lay within 50 to 500 nM.
On the same count and under the same terms, the figure for `C[C@H]1CCCN(Cc2cc(C(F)(F)F)c3ncn(-c4cc([C@]5(c6nncn6C)C[C@@H](CF)C5)ccn4)c(=O)c3c2)C1` [Example 114] is 20 to 50 nM.
On to `CC1CC(c2cncc(-n3ncc4c(C(F)(F)F)cc(CN5CCC[C@H](C)C5)cc4c3=O)c2)(c2nncn2C)C1` (stereo partly shown) [Example 54], for which the IC50 lay within 50 to 500 nM.
Still for that read-out and setting: for `Cn1cnnc1[C@]1(c2ccnc(-n3cnc4c(C(F)(F)F)cc(CN5CCC6(CCO6)C5)cc4c3=O)c2)C[C@H](C)C1` (stereo partly shown) [Example 120] the value was 500 to 1000 nM; for `CC1CC(c2cccc(-n3cc4c(C(F)(F)F)cc(CN5CCC[C@@](C)(O)C5)cc4n3)c2)(c2nncn2C)C1` (stereo partly shown) [Example 89], 50 to 500 nM.
For the compound `C[C@H]1CCCN(Cc2cc3c(=O)n(-c4cc([C@]5(c6nncn6C)C[C@@H](C)C5)cc(OCF)n4)cnc3cn2)C1` [Example 99], the IC50 was under 20 nM.
Consider `C[C@H]1CCCN(Cc2cc(C(F)(F)F)c3cn(-c4cccc([C@]5(c6nncn6C)C[C@@H](OC(F)(F)F)C5)c4)nc3c2)C1` [Example 92], for which the IC50 lay in the range of 50 to 500 nM.
For the compound `CC1CC(c2cccc(N3CCc4c(cc(CN5CC[C@H](F)C5)cc4C(F)(F)F)C3=O)c2)(c2nncn2C)C1` (stereo partly drawn) [Example 1, (S)-7-((3-fluoropyrrolidin-1-yl)methyl)-2-(3-(3-methyl-1-(4-methyl-4H-1,2,4-triazol-3-yl)cyclobutyl)phenyl)-5-(trifluoromethyl)-3,4-dihydroisoquinolin-1(2H)-one], the IC50 is 50 to 500 nM.
Still for that read-out and setting: the figure for `CC1CC(c2cccc(-c3nc4cc(CN5CCC[C@H](C)C5)cc(C(F)(F)F)c4[nH]3)c2)(c2nncn2C)C1` (stereo partly shown) [Example 17] is 50 to 500 nM; for `CC1CC(c2cccc(NC(=O)c3cc(CN4CCC[C@H](C)C4)cc(C(F)(F)F)c3)c2)(c2nncn2C)C1` (stereo partly shown) [Example 30] it is 20 to 50 nM.
Still for that read-out and setting: for `C[C@H]1CCCN(Cc2cc(C(F)(F)F)c3cnn(-c4cc([C@]5(c6nncn6C)C[C@H](C)C5)ccn4)c(=O)c3c2)C1` [Example 65] the value was 500 to 1000 nM; for `CC1CC(c2cccc(-c3nc4cc(CN5CCC[C@H](C)C5)cc(C(F)(F)F)c4n3C)c2)(c2nncn2C)C1` (stereo partly shown) [Example 8], 50 to 500 nM; for `C[C@H]1CCCN(Cc2cc(C(F)(F)F)c3ncn(-c4cc(C5(Cc6nncn6C)COC5)ccn4)c(=O)c3c2)C1` [Example 35], 50 to 500 nM.
The same measure, in the same setting: for `C#C[C@H]1CCCN(Cc2cc(C(F)(F)F)c3ncn(-c4cc([C@]5(c6nncn6C)C[C@@H](C)C5)ccn4)c(=O)c3c2)C1` [Example 61] the value was 20 to 50 nM.
Turning to `CC1CC(c2cncc(-n3cc4c(C(F)(F)F)cc(CN5CCC[C@H](C)C5)cc4n3)c2)(c2nncn2C)C1` (stereo partly shown) [Example 91], the IC50 fell in the range of 20 to 50 nM.

The experiment is the same for the next values; noted with them: HTRF binding, CBL-B (GST-Tag), fluorescence labeled Cbl-b binding probe.
As for `CC1CC(c2cncc(-n3ncc4c(C(F)(F)F)cc(CN5CCC[C@H](C)C5)cc4c3=O)c2)(c2nncn2C)C1` (stereo partly shown) [Example 77], the IC50 was under 20 nM.
With `C#CC1CC(c2cccc(-n3cc4c(C(F)(F)F)cc(CN5CCC[C@H](C)C5)cc4n3)c2)(c2nncn2C)C1` (stereo partly shown) [Example 32], the concentration for half-maximal inhibition (IC50) was under 20 nM.
`C[C@H]1CCCN(Cc2cc(C(F)(F)F)c3cn(-c4cccc(C5(C(F)c6nncn6C)COC5)c4)nc3c2)C1` (stereo partly shown) [Example 57] returned an IC50 of under 20 nM.
Same read-out and setting: the figure for `C[C@H]1CCCN(Cc2cc(C(=O)Nc3cccc([C@@H](c4nncn4C)C4COC4)c3)cc(C(F)(F)F)c2)C1` [Example 26] is over 1000 nM.
On the same count and under the same terms, the figure for `COc1cc([C@]2(c3nncn3C)C[C@@H](C)C2)cc(-n2cnc3c(C(F)(F)F)cc(CN4CCC[C@H](C)C4)cc3c2=O)n1` [Example 115] is under 20 nM; for `C=Cc1cc([C@]2(c3nncn3C)C[C@@H](C)C2)cc(-n2cnc3ccc(CN4CCC[C@H](C)C4)cc3c2=O)n1` [Example 94] it is under 20 nM.
`CC1CC(c2cccc(-n3ncc4c(C(F)(F)F)cc(CN5CCC(F)(F)[C@@H](C)C5)cc4c3=O)c2)(c2nncn2C)C1` (stereo partly shown) [Example 15] yielded an IC50 of over 1000 nM.
Same read-out and setting: the figure for `C#C[C@H]1CCCN(Cc2cc(C(F)(F)F)c3cn(-c4cccc(C5(Cc6nncn6C)COC5)c4)nc3c2)C1` [Example 69] is under 20 nM; for `C#CC1CC(c2ccnc(-n3cnc4c(C(F)(F)F)cc(CN5CCC[C@H](C)C5)cc4c3=O)c2)(c2nncn2C)C1` (stereo partly shown) [Example 101] it is under 20 nM.
Same read-out and setting: the figure for `C[C@@H]1CN(Cc2ccc3ncn(-c4cc([C@]5(c6nncn6C)C[C@@H](C)C5)cc(OCF)n4)c(=O)c3c2)CCC1F` (stereo partly shown) [Example 123] is under 20 nM.
Turning to `C[C@H]1CCCN(Cc2cc(C(F)(F)F)c3cnn(-c4cccc([C@@H](c5nncn5C)C5CCC5)c4)c(=O)c3c2)C1` [Example 18], the IC50 was over 1000 nM.
As to `Cn1cnnc1[C@]1(c2cc(OCF)nc(-n3cnc4c(C(F)(F)F)cc(CN5CCC[C@H](F)C5)cc4c3=O)c2)C[C@H](C)C1` [Example 102], the IC50 is under 20 nM.
Still for that read-out and setting: for `Cn1cnnc1C(F)C1(c2cccc(-n3cc4c(C(F)(F)F)cc(CN5CCC[C@H](C6CC6)C5)cc4n3)c2)COC1` (stereo partly shown) [Example 50] the value was under 20 nM.
Still for that read-out and setting: for `C=C(F)c1cc([C@]2(c3nncn3C)C[C@@H](C)C2)cc(-n2cnc3c(C(F)(F)F)cc(CN4CCC[C@H](C)C4)cc3c2=O)n1` [Example 107] the value was under 20 nM; for `C[C@H]1CCCN(Cc2cc3c(=O)n(-c4cc([C@]5(c6nncn6C)C[C@@H](C)C5)cc(OCF)n4)cnc3cc2F)C1` [Example 100], under 20 nM; for `C[C@H]1CCCN(Cc2cc(F)c3ncn(-c4cc([C@]5(c6nncn6C)C[C@@H](C)C5)cc(OCF)n4)c(=O)c3c2)C1` [Example 111], under 20 nM.
The same measure, in the same setting: for `CC1CC(c2cccc(NC(=O)c3cc(CN4CCC[C@H](C)C4)cc4c3OCCC4(F)F)c2)(c2nncn2C)C1` (stereo partly shown) [Example 24] the value was under 20 nM; for `CC1CC(c2cc(OCF)nc(-n3ncc4c(C(F)(F)F)cc(CN5CCC[C@H](C)C5)cc4c3=O)c2)(c2nncn2C)C1` (stereo partly shown) [Example 38], under 20 nM.
Compound `CC(c1ccc2ncn(-c3cc([C@]4(c5nncn5C)C[C@@H](C)C4)cc(OCF)n3)c(=O)c2c1)N1CCC[C@H](C)C1` (stereo partly shown) [Example 95] showed an IC50 of under 20 nM.
`C#C[C@H]1CCCN(Cc2cc(C(F)(F)F)c3cn(-c4cccc([C@]5(c6nncn6C)C[C@@H](C)C5)c4)nc3c2)C1` [Example 56] returned an IC50 of under 20 nM.
The compound `C[C@H]1CCCN(Cc2cc(C(F)(F)F)c3ncn(-c4cc([C@]5(c6nncn6C(F)F)C[C@@H](C)C5)ccn4)c(=O)c3c2)C1` [Example 48] showed an IC50 of under 20 nM.
The same measure, in the same setting: for `C[C@H]1CCCN(Cc2cc(C(F)(F)F)c3cn(-c4cccc(C5(Cc6nncn6C)COC5)c4)nc3c2)C1` [Example 88] the value was under 20 nM.
In turn, `CC1CC(c2cccc(-n3cc4c(C(F)(F)F)cc(CN5CCC[C@H](C)C5)cc4n3)c2)(c2nncn2C)C1` (stereo partly shown) [Example 7] came in with an IC50 of under 20 nM.
`C[C@H]1CCCN(Cc2cc(C(F)(F)F)c3ncn(-c4cc([C@]5(c6nncn6C)C[C@@H](C)C5)ccn4)c(=O)c3c2)C1` [Example 78] returned an IC50 of under 20 nM.
Still for that read-out and setting: for `C[C@H]1CCCN(Cc2cc(C(F)(F)F)c3cn(-c4cccc(C5(c6nncn6C)CC(CC#N)C5)c4)nc3c2)C1` (stereo partly shown) [Example 90] the value was under 20 nM; for `[2H]c1nnc(C2(c3ccnc(-n4cnc5c(C(F)(F)F)cc(CN6CCC[C@H](C)C6)cc5c4=O)c3)CC(C)C2)n1C(F)F` (stereo partly shown) [Example 113], under 20 nM; for `C[C@H]1CCCN(Cc2ccc3ncn(-c4cc([C@]5(c6nncn6C)C[C@@H](C)C5)cc(C5CC5)n4)c(=O)c3c2)C1` [Example 96], under 20 nM.
Compound `Cn1cnnc1CC1(c2cccc(-n3cc4c(C(F)(F)F)cc(CN5CCC[C@H](C6CC6)C5)cc4n3)c2)COC1` [Example 64] came in with an IC50 of under 20 nM.
Regarding `CC1CC(c2cccc(-n3ncc4c(C(F)(F)F)cc(CN5CCO[C@H](C)C5)cc4c3=O)c2)(c2nncn2C)C1` (stereo partly shown) [Example 10], the IC50 is over 1000 nM.
